From US6362212B1, “Oxime derivative and bactericide containing the same as active ingredient” (Shionogi & Company, Ltd., priority 1994, dated 2002) come the findings set out here.

The test system of assay [1] is Erysiphe graminis f. sp. tritici. Put plainly: Controlling effect on Erysiphe graminis f. sp. tritici by foliage application (pot experiment). It is filed as in vivo. As to conditions: foliage spray on wheat (cv. NORIN No. 61) seedlings, infected area after 10 days in greenhouse at 20° C. Here is the method: The following Test Examples illustrate the effects of the fungicide of the present invention. (I. Controlling effects on various plant diseases by foliage application (pot experiment)) A test compound was dissolved in a small amount of N,N-dimethylformamide, and the solution was diluted to a given concentration with distilled water containing a spreader. Thus, a liquid sample to be tested was prepared. The liquid sample was sprayed to test plants, and 24 hours thereafter, pathogens were inoculated by the method described below. […] The seeds of wheat (cv.: NORIN No. 61) were sown in plastic cups (each 9 cm in diameter), followed by cultivation for 2 to 3 weeks. The test compound in the form of a solution or suspension was sprayed to the seedlings, and conidia of Erysiphe graminis f. sp. tritici cultured on wheat leaves were dropped on the test plants to inoculate the plants with the pathogen. After the inoculation, the plants were kept in a greenhouse at 20° C. for 10 days. The infected area on the leaf was observed, and the percent control was calculated.

The next assay relates to Sphaerotheca fuliginea. Put plainly: Controlling effect on Sphaerotheca fuliginea by foliage application (pot experiment). It is filed as in vivo. As to conditions: foliage spray on cucumber (cv. TSUKUBASHIROIBO) first leaves, infected area after 10 days in greenhouse at 20° C. As for the experimental part: The following Test Examples illustrate the effects of the fungicide of the present invention. (I. Controlling effects on various plant diseases by foliage application (pot experiment)) A test compound was dissolved in a small amount of N,N-dimethylformamide, and the solution was diluted to a given concentration with distilled water containing a spreader. Thus, a liquid sample to be tested was prepared. The liquid sample was sprayed to test plants, and 24 hours thereafter, pathogens were inoculated by the method described below. […] Seeds of cucumber ([…]) were sown in plastic cups (each 9 cm in diameter), followed by cultivation for 2 to 3 weeks. The liquid test sample in the form of a solution or suspension was sprayed on the surface of their first leaves. The pathogen was inoculated to the leaves by spraying a conidia suspension of Sphaerotheca fuliginea which had been cultured on the cucumber leaves. After the inoculation, the plants were kept in a greenhouse at 20° C. for 10 days. Then, the infected area on the leaf was observed, and the percent control was calculated.

The structures appear in SMILES notation.

In the case of `CCON=C(c1ccon1)c1ccccc1COc1ccccc1C` (mixture of isomers) [compound 1665], the “Controlling effect on ErYsiphe graminis f. sp. tritici by foliage application at 500 ppm (percent control)” value in assay [1] is given as 70 percent control.
On the same count and under the same terms, the value for `C=CCON=C(c1ccon1)c1ccccc1COc1ccccc1C` (mixture of isomers) [compound 1667] was 70 percent control.
On to `CON=C(c1ccccc1COc1ccccc1)c1nccn1C` (single isomer, unassigned) [101A], for which the “Controlling effect on Sphaerotheca fuliginea by foliage application at 500 ppm (percent control)” value in the assay with Sphaerotheca fuliginea amounted to 70 percent control.
Take `CON=C(c1ccccc1COc1ccc(F)cc1)c1nccn1C` (single isomer, unassigned) [104B]: the “Controlling effect on ErYsiphe graminis f. sp. tritici by foliage application at 500 ppm (percent control)” value in assay [1] was 70 percent control.
Regarding `CON=C(c1ccccc1COc1ccccc1C)c1nccn1C` (single isomer, unassigned) [112B], in the assay on Sphaerotheca fuliginea, the “Controlling effect on Sphaerotheca fuliginea by foliage application at 500 ppm (percent control)” value is listed as 90 percent control.
On to `CON=C(c1ccccc1COc1cccc(C)c1)c1nccn1C` (single isomer, unassigned) [113B], for which the “Controlling effect on Sphaerotheca fuliginea by foliage application at 500 ppm (percent control)” value in the assay with Sphaerotheca fuliginea is 90 percent control.
The same measure, in the same setting: the figure for `CON=C(c1ccccc1COc1cccc(C(F)(F)F)c1)c1nccn1C` (single isomer, unassigned) [122B] is 100 percent control.
The same measure, in the same setting: the figure for `CON=C(c1ccccc1COc1cc(Cl)ccc1Cl)c1nccn1C` (single isomer, unassigned) [131B] is 100 percent control; for `CON=C(c1ccccc1COc1ccc(-c2ccccc2)cc1)c1nccn1C` (single isomer, unassigned) [144B] it is 70 percent control.
Regarding `CON=C(C1=NCCN1C)c1ccccc1COc1cccc(C(F)(F)F)c1` (single isomer, unassigned) [1122A], the “Controlling effect on ErYsiphe graminis f. sp. tritici by foliage application at 500 ppm (percent control)” value in assay [1] is recorded as 70 percent control.
On the same count and under the same terms, the figure for `CON=C(c1ccccc1COc1cc(C)ccc1C)c1ccnn1C` (single isomer, unassigned) [1554B] is 70 percent control.
Regarding `CON=C(c1ccco1)c1ccccc1COc1cc(C)ccc1C` (single isomer, unassigned) [1634B], the “Controlling effect on Sphaerotheca fuliginea by foliage application at 500 ppm (percent control)” value in the assay on Sphaerotheca fuliginea turned out to be 70 percent control.
As to `CCON=C(c1ccccc1COc1ccccc1)n1cnc(C)c1` [compound 235], the “Controlling effect on ErYsiphe graminis f. sp. tritici by foliage application at 500 ppm (percent control)” value in assay [1] turned out to be 90 percent control.
On to `CON=C(c1ccccc1COc1ccccc1Cl)n1cncn1` [compound 265], for which the “Controlling effect on ErYsiphe graminis f. sp. tritici by foliage application at 500 ppm (percent control)” value in assay [1] was 70 percent control.
With `CON=C(c1ccccc1COc1cc(C)ccc1C)n1cccn1` [compound 294], the “Controlling effect on Sphaerotheca fuliginea by foliage application at 500 ppm (percent control)” value with Sphaerotheca fuliginea amounted to 97 percent control.
Regarding `CON=C(c1ncon1)c1ccccc1COc1ccccc1Cl` [compound 805], the “Controlling effect on Sphaerotheca fuliginea by foliage application at 500 ppm (percent control)” value in the assay with Sphaerotheca fuliginea amounted to 97 percent control.
Consider `CON=C(C1=NCCO1)c1ccccc1COc1ccccc1Cl` [compound 1305], for which the “Controlling effect on Sphaerotheca fuliginea by foliage application at 500 ppm (percent control)” value in the assay with Sphaerotheca fuliginea was 70 percent control.
For the compound `CON=C(C1=NCCO1)c1ccccc1COc1ccc(C)cc1` [compound 1312], in the assay with Sphaerotheca fuliginea, the “Controlling effect on Sphaerotheca fuliginea by foliage application at 500 ppm (percent control)” value is reported as 70 percent control.
For the compound `CON=C(c1ncno1)c1ccccc1COc1cc(C)ccc1C` [compound 1590], the “Controlling effect on Sphaerotheca fuliginea by foliage application at 500 ppm (percent control)” value in the assay with Sphaerotheca fuliginea is 70 percent control.
Regarding `CON=C(C1=NCCO1)c1ccccc1Oc1ccc(C(F)(F)F)cn1` [compound 1826], the “Controlling effect on Sphaerotheca fuliginea by foliage application at 500 ppm (percent control)” value in the assay on Sphaerotheca fuliginea is 70 percent control.
On the same count and under the same terms, the figure for `CON=C(c1noc(C)n1)c1cc(Cl)ccc1Oc1ccc(C(F)(F)F)cn1` [compound 2120] is 70 percent control.
